Experiments:
VCAM-1 [1] = assay: VCAM-1 expression in human aortic endothelial cells (TNF-induced, ELISA); assay type: cell-based; details: for VCAM-1 expression as a percentage of VCAM-1 expression induced by TNF alone: HAEC, 2.5, 5, 10 and 100 μM, 16 h, 37 °C, FIG. 1
Description: (§1) The cells were incubated for sixteen hours in cell culture media at 37 degrees Celsius in a tissue culture incubator. After sixteen hours, the cells were washed, and incubated with antibodies to VCAM-1. The amount of antibody binding to the cells was determined by a colorometric ELISA assay using a horseradish peroxidase conjugated antibody to the VCAM-1 antibody.

ICAM-1 = ICAM-1 expression in human aortic endothelial cells (TNF-induced, ELISA); assay type: cell-based; details: HAEC; 2.5, 5, 10 and 100 μM; 16 h; FIG. 2
Description: as §1, with “ICAM-1.” for “VCAM-1.”, “ICAM-1” for “VCAM-1”

MCP-1 [2] = assay: MCP-1 expression in human aortic endothelial cells (TNF, ELISA); assay type: cell-based
Text: The cell culture media was harvested and used to quantitate the amount of MCP-1 using a color-based ELISA assay. […] MCP-1 is a chemoattractant protein that recruits monocytes to an atherosclerotic lesion.

VCAM-1 [3] = assay: VCAM-1 gene expression in lungs of LPS-challenged mice (Northern blot); assay type: in vivo, mouse; details: subcutaneous time release pellets, 150 mg/kg/day
Description: (§2) MSE administered via subcutaneous implanted pellets (150 mg/kg/day time release pellets) blocks LPS-induced gene expression of VCAM-1 and MCP-1 in lungs in a mice model.
(§3) FIG. 4 is a Northern blot analysis of VCAM-1 and MCP-1 gene expression from RNA isolated from the lungs of LPS-challenged ApoE knockout mice. […] After one week they were challenged intraperitoneally with 1 mg/kg of LPS. After two hours the animals were sacrificed and lungs frozen for RNA isolation. The RNA was size fractionated by denaturing 1.0% agarose gel electrophoresis, transferred to a nylon membrane and hybridized with a mouse JE-specific ^32 P-labelled cDNA probe. The membrane was subsequently stripped and hybridized with a mouse VCAM-1 specific cDNA and then a chicken β-actin specific cDNA probe.

MCP-1 [4] = assay: MCP-1 gene expression in lungs of LPS-challenged mice (Northern blot); assay type: in vivo, mouse; details: subcutaneous time release pellets, 150 mg/kg/day
Description: as §2, §3

lipid-fed rabbits = assay: Cholesterol and lipoprotein cholesterol in plasma of lipid-fed rabbits, three weeks; assay type: in vivo, rabbit; details: 0.5% wt/wt in high-fat chow, p<0.05, FIG. 5
Text: Control animals were fed the same chow without drug added. Lipoprotein fractions were separated from whole plasma by […] and analyzed for cholesterol content.

[5] = Drug level in plasma of rabbits fed a high cholesterol diet for three weeks (HPLC); assay type: in vivo, rabbit; details: 0.5% wt/wt in high-fat chow, FIG. 6
Text: The drugs were extracted from plasma with ether and analyzed by high pressure liquid chromatography.

NF-kB [6] = assay: NF-kB activation in TNF-treated human aortic endothelial cells (gel shift); assay type: cell-based; details: HAEC, 25 micromolar, 1, 2 or 4 h
Description: Human aortic endothelial cells were treated with TNF alone or in combination with 25 micromolar MSE or PDTC for a period of either one hour, two hours or four hours. The cells were washed and the nuclear extracts were prepared to perform gel shift analysis using a VCAM-1 promoter probe.

[7] = system: New Zealand white rabbits; assay: Cholesterol and lipoproteins in cholesterol-fed New Zealand White rabbits, six weeks; assay type: in vivo, rabbit
Description: (§4) Oral administration of MSE (150 mg/kg/day) for six weeks lowers total plasma, ApO-B containing and HDL cholesterol levels in a New Zealand White rabbit model.
(§5) After six weeks, lipoprotein fractions were separated from whole plasma by […], and analyzed for cholesterol and triglyceride content.

aortic lesions = assay: Aortic lesions in hypercholesterolemic rabbits (sudan-4 staining); assay type: in vivo, rabbit; details: six weeks
Description: as §4, §5
(§6) The rabbits described in Example 8 were sacrificed and aortas obtained. The aortas were stained with sudan-4 and the extent of staining analyzed. FIG. 9 is a graph of the percent aortic surface area covered by lesions in MSE treated and untreated lipid-fed rabbits.

VCAM-1 [8] = assay: VCAM-1 expression in aorta sections of hypercholesterolemic rabbits (immunostaining); assay type: in vivo, rabbit; details: six weeks; for reduction in VCAM-1 expression in aorta sections: immunostaining, approx. 150 mg/kg/day (probucol: similar experiment, same dose)
Text: as §5, §6
(§7) Sections of the aortas were immunostained for VCAM-1 expression or macrophage accumulation using antibodies for VCAM-1 or Ram-11 antigen.

[9] = system: macrophage accumulation (Ram-11 antigen); assay: Macrophage accumulation in aorta sections of hypercholesterolemic rabbits (Ram-11 immunostaining); assay type: in vivo, rabbit; details: six weeks; for reduction in macrophage accumulation in aorta sections: immunostaining (Ram-11), approx. 150 mg/kg/day (probucol: similar experiment, same dose)
Text: as §5, §6, §7

[10] = system: hypercholesterolemic monkeys; assay: Serum LDL and cholesterol in hypercholesterolemic cynomolgus monkeys; assay type: in vivo; details: for effect on HDL: monkeys
Description: Cynomolgus monkeys were made hypercholesterolemic prior to AGE-3 dosing by feeding a high fat cholesterol diet. The monkeys were then dosed orally with AGE-3 (100 mg/kg/day) for two weeks. The percent serum LDL cholesterol decreased in a range from 4 to 60 percent in the monkeys over this time period. Administration of the drug was then terminated, and serum cholesterol checked on day 29.

[11] = Plasma level of MSE over days of treatment (FIG. 10); assay type: in vivo; details: FIG. 10, in micromolar
apoE-knock out mice = assay: Lipoproteins in apoE-knock out mice, two weeks oral; assay type: in vivo, mouse; details: for effect on HDL / effect on total cholesterol and LDL: mice
bacteria = assay: Bacterial Ames test
Text: MSE is not a mutagen in the bacterial Ames test.

rats = assay: Two-week oral administration to rats (toxicity, clinical chemistry); assay type: in vivo, rat; details: 1000 mg/kg/day
rabbits = assay: Effect on lipoproteins in rabbits (summary statement); assay type: in vivo, rabbit; details: for effect on HDL: rabbits (species not restated for probucol)
Text: Statins reduce LDL and may or may not effect HDL.

C57 black mice = assay: Lipoproteins in cholesterol-fed C57 black mice, two weeks oral; assay type: in vivo, mouse
VCAM-1 [12] = assay: VCAM-1 expression (general statement)
NF-kB [13] = details: diverse signals; cited from earlier work
VCAM-1 [14] = details: PCT/US95/05880; cited from earlier work
VCAM-1 [15] = details: U.S. Pat. No. 5,380,747; cited from earlier work
[16] = system: LDL receptor-deficient rabbits; details: Carew et al.; cited from earlier work
[17] = cited from earlier work
[18] = 0.5 wt/wt (approx. 150 mg/kg/day) in diet, FIG. 8
[19] = oral, 150 mg/kg/day, New Zealand White rabbit
[20] = listed as monosuccinic acid ester of probucol

CC(C)(Sc1cc(C(C)(C)C)c(O)c(C(C)(C)C)c1)Sc1cc(C(C)(C)C)c(OC(=O)CCC(=O)O)c(C(C)(C)C)c1 [MSE, monosuccinic acid ester of probucol]
VCAM-1 expression as a percentage of VCAM-1 expression induced by TNF alone (VCAM-1 [1]): inhibits the expression of VCAM-1
TNF-induced VCAM-1 gene expression (VCAM-1 [1]; human aortic endothelial cells): selectively inhibits
ICAM-1 expression as a percentage of ICAM-1 expression induced by TNF alone (ICAM-1): only a slight effect on ICAM expression which was not very concentration dependent
MCP-1 expression (MCP-1 [2]; HAEC, MSE 10 μM, probucol 50 μM, TNF, 4 h, FIG. 3): inhibited the expression of MCP-1 to a greater extent than probucol itself
TNF-induced MCP-1 gene expression (MCP-1 [2]; human aortic endothelial cells): selectively inhibits
LPS-induced gene expression of VCAM-1 in lungs (VCAM-1 [3]): blocks
LPS-induced gene expression of MCP-1 in lungs (MCP-1 [4]): blocks
reduction in lipoprotein fractions (cholesterol) (lipid-fed rabbits): statistically significant reduction in all lipoprotein fractions
drug level in plasma, MSE vs probucol [5]: similar
effect on NF-kB activation (NF-kB [6]): does not affect NF-kB activation
cholesterol in IDL [7, 18]: lowered more by treatment with AGE-3 than with probucol
cholesterol in VLDL [7, 18]: lowered more by treatment with AGE-3 than with probucol
total cholesterol [7, 18]: lowered more by treatment with AGE-3 than with probucol
ApO-B containing cholesterol levels [7, 19]: lowers
HDL cholesterol levels [7, 19]: lowers
total plasma cholesterol [7, 19]: lowers
atherosclerosis lesion formation (aortic lesions; oral, 150 mg/kg/day): marked inhibition
aortic sudan-4 staining (aortic lesions; approx. 150 mg/kg/day, FIG. 9): much less staining
reduction in VCAM-1 expression in aorta sections (VCAM-1 [8]): more than 75%
VCAM-1 expression in aorta (VCAM-1 [8]; oral, 150 mg/kg/day): marked inhibition
reduction in macrophage accumulation in aorta sections [9]: more than 75%
macrophage accumulation ([9]; oral, 150 mg/kg/day): marked inhibition
serum cholesterol after termination of dosing ([10]; day 29, after 100 mg/kg/day oral for two weeks): returned to the pretreatment level
lowering of LDL, reversibility ([10]; during and after administration, FIG. 12): reversible lowering of LDL
effect on HDL [10]: without effecting HDL
effect on total cholesterol and LDL, monkeys vs mice ([10]; monkeys compared with mice): significantly more effective at reducing both cholesterol and LDL in rabbits and monkeys than in mice
effect on HDL [10, 20]: does not affect HDL
LDL cholesterol ([10]; oral, two weeks): lowers
total plasma cholesterol ([10]; oral, two weeks): lowers
plasma level of MSE as a function of days [11]: remained fairly constant
effect on HDL (apoE-knock out mice): without affecting HDL
effect on total cholesterol and LDL (apoE-knock out mice): a minimal if any, effect
effect on HDL (apoE-knock out mice; [20]): does not affect HDL
apoB-containing lipoproteins (apoE-knock out mice; oral, two weeks, apoE-knock out mice): selectively lowers
mutagenicity (bacteria): not a mutagen
mortality (rats; oral, two weeks): did not result in any mortality
changes in liver morphology or histopathology (rats; rat, in vivo, po): not accompanied with changes in liver morphology or histopathology
hematocrit values (rats; rat, in vivo, po): no effect
serum LDH elevation (rats; rat, in vivo, po): not statistically different from the untreated group
serum SGOT elevation (rats; rat, in vivo, po): not statistically different from the untreated group
serum SGPT elevation (rats; rat, in vivo, po): not statistically different from the untreated group
serum alkaline phosphatase elevation (rats; rat, in vivo, po): not statistically different from the untreated group
serum electrolyte values (rats; rat, in vivo, po): no effect
effect on HDL (rabbits): reduces HDL only to a small extent
effect on total cholesterol and LDL, rabbits vs mice (rabbits; rabbits compared with mice): significantly more effective at reducing both cholesterol and LDL in rabbits and monkeys than in mice
apoB-containing lipoproteins (C57 black mice): selectively lowers
effect on HDL (C57 black mice): without affecting HDL
effect on VCAM-1 expression (VCAM-1 [12]): block the induced expression of the endothelial cell surface adhesion molecule VCAM-1
VCAM-1 expression, all species tested (VCAM-1 [12]; all species tested): inhibits the expression of VCAM-1 in all species tested

S=C(S)N1CCCC1 [PDTC, pyrrolidine dithiocarbamate]
effect on NF-kB activation (NF-kB [6]): does inhibit the activation of NF-kB
activation of NF-kB in vascular endothelial cells (NF-kB [13]): specifically inhibited
induction of VCAM-1 by polyunsaturated fatty acids and their hydroperoxides (VCAM-1 [14]): supressed
expression of VCAM-1 in vascular endothelial cells (VCAM-1 [15]): can be inhibited

CC(C)(Sc1cc(C(C)(C)C)c(O)c(C(C)(C)C)c1)Sc1cc(C(C)(C)C)c(O)c(C(C)(C)C)c1 [probucol, 4,4'-(isopropylidenedithio) bis(2,6-di-tert-butylphenol), reference compound]
VCAM-1 expression as a percentage of VCAM-1 expression induced by TNF alone (VCAM-1 [1]): does not have an appreciable effect on VCAM
ICAM-1 expression as a percentage of ICAM-1 expression induced by TNF alone (ICAM-1): no effect on ICAM expression
reduction in lipoprotein fractions (cholesterol) (lipid-fed rabbits): only HDL cholesterol
reduction in VCAM-1 expression in aorta sections (VCAM-1 [8]): less than 25%
reduction in macrophage accumulation in aorta sections [9]: less than 25%
effect on total cholesterol and LDL (apoE-knock out mice): a minimal if any, effect
effect on HDL (rabbits): reduces HDL significantly
effect on LDL (rabbits; species not restated for probucol): reduces LDL only to a small extent
effect on VCAM-1 expression (VCAM-1 [12]): does not significantly affect VCAM-1 expression
progression of atherosclerosis [16]: slow the progression of atherosclerosis
solubility in water [17]: almost insoluble in water
